These are literature values, as cited in publication PMC8739290, “A phase 1b study of erlotinib and momelotinib for the treatment of EGFR-mutated, tyrosine kinase inhibitor-naive metastatic non-small cell lung cancer” (Cancer Chemotherapy and Pharmacology, 2021).

Like-named read-outs stand apart in the source and are kept apart here.

The test system of one data set is PC-9 and HCC827 models. The arrangement: method as in PMID 32297743, doi:10.1158/7445.AM2017-4046. Particulars: AZD4205 with osimertinib, increased tumor regression, delayed regrowth, knockdown of pSTAT3; cited from earlier work.
Data set [1] relates to patients with documented progression on erlotinib. The arrangement: method as in PMID 27613527. As to conditions: ruxolitinib in combination with erlotinib, cited from earlier work.
Data set [2] relates to patients who had progressed on at least 1 first-generation EGFR TKI. On the set-up: method as in PMID 31319994. As to conditions: ruxolitinib in combination with afatinib, cited from earlier work.
Data set [3] deals with colony formation in soft agar assays. On the set-up: method as in PMID 22319590. Particulars: cited from earlier work.
The test system of a further data set is HCC-827 xenograft models. On the set-up: method as in PMID 22319590. Particulars: cited from earlier work.
The subject of another data set is HCC4006 xenograft model. On the set-up: method as in PMID 25065853. As to conditions: ruxolitinib plus erlotinib; cited from earlier work.

For the compound `COc1nn(C)cc1Nc1nccc(-c2c[nH]c3c(NC(=O)[C@@H](C)N4CCN(C)CC4)cccc23)n1` [AZD4205, (2R)-N-[3-[2-[(3-Methoxy-1-methyl-pyrazol-4-yl)amino]pyrimidin-4-yl]-1H-indol-7-yl]-2-(4-methylpiperazin-1-yl)propenamide], the “combination activity compared to each agent alone” value in the data set on PC-9 and HCC827 models is given as “synergistic activity”.
For `N#CC[C@H](C1CCCC1)n1cc(-c2ncnc3[nH]ccc23)cn1` [ruxolitinib], the objective response in data set [1] (1 of 22 patients) is 5%; in data set [2] (patients with EGFR T790M, 5 of 20), 25%; in data set [2] (patients without EGFR T790M, 2 of 10), 20%. Besides, the “median PFS” value in data set [1] (95% CI 1.5–4.1) is 2.2 months; in data set [2] (patients with EGFR T790M, 95% CI 2.5–7.3), 4.9 months; in data set [2] (patients without EGFR T790M, 95% CI 0.0–8.8), 3.1 months. Besides, the colony formation entry in data set [3] is given as “decreased colony formation”. Moreover, the tumor growth result in the data set on HCC-827 xenograft models is listed as “slowed tumor growth”. Moreover, the “combination activity compared to EGFR inhibition alone” value in the data set on HCC4006 xenograft model is recorded as “synergistic activity”.
